Test results from US20240252488A1 (KOREA RESEARCH INSTITUTE OF CHEMICAL TECHNOLOGY, priority 2020, published 2024).

Tests used:
MLKL [1] = biological target: T1, MLKL (Homo sapiens, UniProt Q8NB16); assay: Measurement of binding affinity with MLKL receptor (competitive binding assay, Kd); design: made in house; host or cells: HEK 293 cell line (T7 phage in E. coli BL21-derived host is also described)
T1 sequence (Q8NB16 1-471): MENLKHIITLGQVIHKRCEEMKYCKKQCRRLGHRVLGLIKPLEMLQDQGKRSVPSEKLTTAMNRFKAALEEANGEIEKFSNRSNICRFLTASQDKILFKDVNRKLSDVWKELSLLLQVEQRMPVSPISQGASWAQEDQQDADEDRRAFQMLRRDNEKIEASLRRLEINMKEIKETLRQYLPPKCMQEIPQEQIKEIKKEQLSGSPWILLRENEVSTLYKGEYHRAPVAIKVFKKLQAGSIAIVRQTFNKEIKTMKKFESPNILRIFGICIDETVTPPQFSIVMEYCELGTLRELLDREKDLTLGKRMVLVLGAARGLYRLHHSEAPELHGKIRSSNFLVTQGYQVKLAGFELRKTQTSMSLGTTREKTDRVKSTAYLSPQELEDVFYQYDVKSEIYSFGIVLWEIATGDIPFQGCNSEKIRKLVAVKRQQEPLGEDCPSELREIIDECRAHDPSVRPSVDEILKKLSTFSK
How it was run: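 Kd comes from a bead-based competition format: compound-dependent loss of DNA-tagged, HEK 293-expressed MLKL capture, measured as eluate kinase by qPCR. Final DMSO is 0.9%.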

MLKL [2] = biological target: T1, MLKL; assay: MLKL degradation assay in HepG2 cell line (western blot); format: cell-based; design: endogenous in cells; host or cells: HepG2 or HaCaT; conditions: cell line not given; for Degradation assay (Degradation %) 1 μM: compound 1 μM; for Degradation assay (Degradation %) 10 μM: compound 10 μM
How it was run: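 HepG2, cpd final 1 or 10 μM, 20-24 h, 37 °C/5% CO2; RIPA lysis, BCA-normalized, 10-15 μg/lane SDS-PAGE, western blot, ECL read-out.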

FADD−/− Jurkat cells = assay: Necroptosis inhibition assay, TNF-α-induced necroptosis (CellTiter-Glo 2.0); format: cell-based, human; conditions: TNF-α 15 ng/mL; for Necroptosis inhibition assay (Rescue %) 1 μM: compound 1 μM; for Necroptosis inhibition assay (Rescue %) 10 μM: compound 10 μM
How it was run: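 Cmpd 0.1/1/10 μM final, 30 min RT preincubation; TNF-α 15 ng/mL final; 20–24 h, 37° C, 5% CO2. Readout: ATP luminescence (reagent 1:3 in PBS), 0.5 s/well. Cytotoxicity and % necroptosis inhibition calculated from signal.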

Compound | Kd (MLKL [1]) | Degradation assay (Degradation %) 1 μM (MLKL [2]) | Degradation assay (Degradation %) 10 μM (MLKL [2]) | Necroptosis inhibition assay (Rescue %) 1 μM (FADD−/− Jurkat cells) | Necroptosis inhibition assay (Rescue %) 10 μM (FADD−/− Jurkat cells) | Necroptosis inhibition assay (Rescue %) 1 μM (FADD−/− Jurkat cells; FADD−/− Jurkat cells) | Necroptosis inhibition assay (Rescue %) 10 μM (FADD−/− Jurkat cells; FADD−/− Jurkat cells)
Nc1ncc(-c2cnn(C3CCN(CC4CCN(C(=O)COc5cccc6c5C(=O)N(C5CCC(=O)NC5=O)C6=O)CC4)CC3)c2)nc1C(=O)N[C@@H](C(=O)Nc1ccc(F)cc1)c1ccccc1 (stereo partly drawn) [TDH-186, 3-amino-6-(1-(1-((1-(2-((2-(2,6-dioxopiperidin-3-yl)-1,3-dioxoisoindolin-4-yl)oxy)acetyl)piperidin-4-yl)methyl)piperidin-4-yl)-1H-pyrazol-4-yl)-N-((R)-2-((4-fluorophenyl)amino)-2-oxo-1-phenylethyl)pyrazine-2-carboxamide] | 75 nM | 14.8% | 21.54% | 35.73% | 35.74% | – | –
Nc1ncc(-c2cnn(C3CCN(C[C@H]4CC[C@H](CNC(=O)C5CCN(c6ccc7c(c6)C(=O)N(C6CCC(=O)NC6=O)C7=O)CC5)CC4)CC3)c2)nc1C(=O)O[C@@H](C(=O)Nc1ccc(F)cc1)c1ccccc1 (stereo partly drawn) [TDH-350, (R)-2-((4-fluorophenyl)amino)-2-oxo-1-phenylethyl 3-amino-6-(1-(1-(((1r,4r)-4-((1-(2-(2,6-dioxopiperidin-3-yl)-1,3-dioxoisoindolin-5-yl)piperidine-4-carboxamido)methyl)cyclohexyl)methyl)piperidin-4-yl)-1H-pyrazol-4-yl)pyrazine-2-carboxylate] | 3.7 nM | 86.13% | 88.73% | 39.64% | 34.84% | – | –
Nc1ncc(-c2cnn(C3CCN(CCCN4CCN(C(=O)c5ccc6c(c5)CN(C5CCC(=O)NC5=O)C6=O)CC4)CC3)c2)nc1C(=O)O[C@@H](C(=O)Nc1ccc(F)cc1)c1ccccc1 (stereo partly drawn) [TDH-530, (R)-2-((4-fluorophenyl)amino)-2-oxo-1-phenylethyl 3-amino-6-(1-(1-(3-(4-(2-(2,6-dioxopiperidin-3-yl)-1-oxoisoindoline-5-carbonyl)piperazin-1-yl)propyl)piperidin-4-yl)-1H-pyrazol-4-yl)pyrazine-2-carboxylate] | 0.21 nM | 54.30% | 61.10% | – | – | 29.18% | 30.78%
Nc1ncc(-c2cnn(C3CCN(C(=O)C4CCN(C(=O)CNc5ccc6nnn(C7CCC(=O)NC7=O)c(=O)c6c5)CC4)CC3)c2)nc1C(=O)O[C@@H](C(=O)Nc1ccc(F)cc1)c1ccccc1 (stereo partly drawn) [TDH-408, (R)-2-((4-fluorophenyl)amino)-2-oxo-1-phenylethyl 3-amino-6-(1-(1-(1-((3-(2,6-dioxopiperidin-3-yl)-4-oxo-3,4-dihydrobenzo[d][1,2,3]triazin-6-yl)glycyl)piperidine-4-carbonyl)piperidin-4-yl)-1H-pyrazol-4-yl)pyrazine-2-carboxylate] | 0.57 nM | 77.02% | 44.73% | – | – | 26.68% | 19.89%
Nc1ncc(-c2cnn(C3CCN(CCCN4CC5CN(C(=O)CCc6ccc7c(c6)C(=O)N(C6CCC(=O)NC6=O)C7=O)CC5C4)CC3)c2)nc1C(=O)O[C@@H](C(=O)Nc1ccc(F)cc1)c1ccccc1 (stereo partly drawn) [TDH-480, (R)-2-((4-fluorophenyl)amino)-2-oxo-1-phenylethyl 3-amino-6-(1-(1-(3-(5-(3-(2-(2,6-dioxopiperidin-3-yl)-1,3-dioxoisoindolin-5-yl)propanoyl)hexahydropyrrolo[3,4-c]pyrrol-2(1H)-yl)propyl)piperidin-4-yl)-1H-pyrazol-4-yl)pyrazine-2-carboxylate] | 0.48 nM | 46.42% | 73% | – | – | 35.76% | 39.78%
Nc1ncc(-c2cnn(C3CCN(C(=O)C4CCN(c5ccc6c(c5)C(=O)N(C5CCC(=O)NC5=O)C6=O)CC4)CC3)c2)nc1C(=O)OC(C(=O)Nc1ccc(F)cc1)c1ccccc1 (stereo not shown) [TDH-280, 2-((4-fluorophenyl)amino)-2-oxo-1-phenylethyl 3-amino-6-(1-(1-(1-(2-(2,6-dioxopiperidin-3-yl)-1,3-dioxoisoindolin-5-yl)piperidine-4-carbonyl)piperidin-4-yl)-1H-pyrazol-4-yl)pyrazine-2-carboxylate] | 9.3 nM | 53.99% | 39.22% | 33.16% | 19.54% | – | –
Nc1ncc(-c2cnn([C@H]3CCN(CCOCCOCCNC(=O)CNc4cccc5c4C(=O)N(C4CCC(=O)NC4=O)C5=O)C3)c2)nc1C(=O)OC(C(=O)Nc1ccc(F)cc1)c1ccccc1 (stereo partly drawn) [TDH-263, 2-((4-fluorophenyl)amino)-2-oxo-1-phenylethyl 3-amino-6-(1-((3S)-1-(2-(2-(2-(2-((2-(2,6-dioxopiperidin-3-yl)-1,3-dioxoisoindolin-4-yl)amino)acetamido)ethoxy)ethoxy)ethyl)pyrrolidin-3-yl)-1H-pyrazol-4-yl)pyrazine-2-carboxylate] | 7.4 nM | 76.27% | 71.82% | 16.13% | 57.97% | – | –
Cc1ncsc1-c1ccc(CNC(=O)[C@@H]2C[C@@H](O)CN2C(=O)[C@@H](NC(=O)CN2CCC(CN3CCC(n4cc(-c5cnc(N)c(C(=O)O[C@@H](C(=O)Nc6ccc(F)cc6)c6ccccc6)n5)cn4)CC3)CC2)C(C)(C)C)cc1 [TDH-211, (R)-2-((4-fluorophenyl)amino)-2-oxo-1-phenylethyl 3-amino-6-(1-(1-((1-(2-(((S)-1-((2S,4R)-4-hydroxy-2-((4-(4-methylthiazol-5-yl)benzyl)carbamoyl)pyrrolidin-1-yl)-3,3-dimethyl-1-oxobutan-2-yl)amino)-2-oxoethyl)piperidin-4-yl)methyl)piperidin-4-yl)-1H-pyrazol-4-yl)pyrazine-2-carboxylate] | 6.3 nM | 9.7% | 29.62% | 29.87% | 41.58% | – | –
Nc1ncc(-c2cnn(C3CCN(C(=O)CCC4CCN(C(=O)CNc5cccc6c5C(=O)N(C5CCC(=O)NC5=O)C6=O)CC4)CC3)c2)nc1C(=O)O[C@@H](C(=O)Nc1ccc(F)cc1)c1ccccc1 (stereo partly drawn) [TDH-421, (R)-2-((4-fluorophenyl)amino)-2-oxo-1-phenylethyl 3-amino-6-(1-(1-(3-(1-((2-(2,6-dioxopiperidin-3-yl)-1,3-dioxoisoindolin-4-yl)glycyl)piperidin-4-yl)propanoyl)piperidin-4-yl)-1H-pyrazol-4-yl)pyrazine-2-carboxylate] | 5.3 nM | 86.78% | 86.81% | – | – | 37.14% | 35.74%
Nc1ncc(-c2cnn(C3CCN(CC4CCN(CCC5CCN(C(=O)Cc6cccc(NC7=CC(=O)N(C8CCC(=O)NC8=O)C7=O)c6)CC5)CC4)CC3)c2)nc1C(=O)O[C@@H](C(=O)Nc1ccc(F)cc1)c1ccccc1 (stereo partly drawn) [TDH-507, (R)-2-((4-fluorophenyl)amino)-2-oxo-1-phenylethyl 3-amino-6-(1-(1-((1-(2-(1-(2-(3-((1-(2,6-dioxopiperidin-3-yl)-2,5-dioxo-2,5-dihydro-1H-pyrrol-3-yl)amino)phenyl)acetyl)piperidin-4-yl)ethyl)piperidin-4-yl)methyl)piperidin-4-yl)-1H-pyrazol-4-yl)pyrazine-2-carboxylate] | 1.1 nM | 82.75% | 86.37% | – | – | 26.03% | 14.19%
Nc1ncc(-c2cnn(C3CCN(CCCN4CCN(C(=O)CNc5cccc6c5C(=O)N(C5CCC(=O)NC5=O)C6=O)CC4)CC3)c2)nc1C(=O)OC(C(=O)Nc1ccc(F)cc1)c1ccccc1 (stereo not shown) [TDH-241, 2-((4-fluorophenyl)amino)-2-oxo-1-phenylethyl 3-amino-6-(1-(1-(3-(4-((2-(2,6-dioxopiperidin-3-yl)-1,3-dioxoisoindolin-4-yl)glycyl)piperazin-1-yl)propyl)piperidin-4-yl)-1H-pyrazol-4-yl)pyrazine-2-carboxylate] | 2.9 nM | 64.55% | 64.03% | 50.09% | 28.85% | – | –
